The text below walks through data of US11446298B2, “Pyrimidine derivatives” (Idorsia Pharmaceuticals Ltd, priority 2017, dated 2022).

Holding throughout (format): cell-based
One assay concerns the target T1, PTGER2 (EP2) (Homo sapiens, UniProt P43116).
T1 construct: host or cells: HEK 293 (PathHunter, stably transfected)
The assay can be described thus: hEP2 b-Arrestin Assay (PathHunter HEK 293 PTGER2 b-arrestin cells, PGE2 5 μM). The settings on record: antagonistic activity, beta-arrestin assay, HEK 293 PTGER2 cells, PGE2 5 μM (EC80); read-out: hEP2 b-arr IC50. The procedure, abridged:
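PathHunter enzyme-fragment complementation in HEK 293 cells: compounds (10 μM-2 nM or 1 μM-0.2 nM) pre-incubated 15 min at 37 °C, then 5 μM PGE2 (EC80) for 120 min at 37 °C. Chemiluminescence read after 1 h detection; IC50 from duplicate dose-response fits, means of repeats.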

A further assay addresses T2, EP4 (Homo sapiens, UniProt P35408).
T2 construct: BT549 breast cancer cells, express high endogenous EP4 levels and very low EP2 levels; host or cells: BT549 breast cancer cells
The assay can be described thus: hEP4 cAMP Assay (BT549 breast cancer cells, HTRF cAMP, PGE2 6 nM). The settings on record: antagonistic activity, PGE2 6 nM (EC80). The procedure, abridged:
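BT549 cells (endogenous EP4, very low EP2) in HBSS/20 mM HEPES/0.2% BSA/2 mM IBMX, pre-incubated 45 min RT with compound, then stimulated 30 min RT with PGE2 6 nM (EC80). cAMP read by HTRF competitive immunoassay (665/620 nm), converted via calibrator to % of DMSO control; IC50 from duplicate dose-response curves.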

For a further assay, the target named is T3, EP2 (Homo sapiens, UniProt P43116).
T3 construct: SF295 glioblastoma cells express high endogenous EP2 and no EP4; host or cells: SF295 glioblastoma cells
The assay can be described thus: hEP2 cAMP Assay (SF295 glioblastoma cells, HTRF cAMP, PGE2 75 nM). The note with it: antagonistic activity, PGE2 75 nM (EC80). The procedure, abridged:
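IC50 values derive from duplicate-point curves of percent cAMP relative to DMSO, read by HTRF (665/620 nm) against a cAMP calibrator. Compounds (30 μM to 0.01 nM ranges) were given 45 min at room temperature before 30 min with 75 nM PGE2, in EP2-only SF295 cells with 2 mM IBMX.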

The next assay has as its target T4, PTGER4 (EP4) (Homo sapiens, UniProt P35408).
T4 construct: host or cells: HEK 293 (PathHunter, stably transfected)
Put plainly: hEP4 b-Arrestin Assay (PathHunter HEK 293 PTGER4 b-arrestin cells, PGE2 20 nM). The note with it: antagonistic activity, beta-arrestin assay, HEK 293 PTGER4 cells, PGE2 20 nM (EC80); read-out: hEP4 b-arr IC50. The method, then:
The antagonistic activities of the compounds of formula (I) on the EP2 and EP4 receptors are also determined in accordance with the following experimental method.
The assay is using the PathHunter™ HEK 293 PTGER2 and PTGER4 b-arrestin cell lines from DiscoverX. The system is based on the Enzyme Fragment Complementation Technology. Two complementing fragments of the b-galactosidase enzyme are expressed within stably transfected cells. The larger portion of b-gal, termed EA for Enzyme Acceptor, is fused to the C-terminus of b-arrestin 2. The smaller fragment, termed ProLink™ tag, is fused to PTGER2 (EP2) or PTRGER4 (EP4) at the C-terminus. Upon activation, b-arrestin is recruited which forces the interaction of ProLink and EA, allowing complementation of the two fragments of b-gal and the formation of a functional enzyme which is capable of hydrolysing the substrate and generating a chemiluminescent signal.
The HEK 293 PTGER4 b-arrestin cells (DiscoverX 93-030-4C1) are detached from culture dishes with a cell dissociation buffer (Invitrogen, 13151-014), and collected in growing medium (GM: DMEM+Glutamax-I (Invitrogen 32430)/10% FCS, 1% Penicilin/streptomycin). 5000 cells per well of a 384 well plate (white with white bottom Greiner 781080) are seeded in 20 ul per well of GM. Plate is incubated at 37° C., 5% CO2 for 24 hours.
Stock solutions of test compounds are made at a concentration of 10 mM in DMSO, and serially diluted in DMSO to concentrations required for inhibition dose response curves (tested concentration range 10 μM-2 nM or 1 μM-0.2 nM).
PGE2 (Cayman 14010, stock solution: 100 μM in DMSO) is used as agonist at 20 nM final concentration, corresponding to EC80.
Five microliters of diluted compounds are transferred into the assay plate. Plate is pre-incubated 15 minutes at 37° C. Then five microliters of PGE2 (final conc. 20 nM) are transferred into the assay plate. Plate is incubated 120 minutes at 37° C.
PathHunter Glo Detection Kit components are thawed and mix according to manufacturer's instructions: 1 part Galacton Star Substrate with 5 parts Emerald II™ Solution, and 19 parts of PathHunter Cell Assay Buffer, respectively. Twelve μl of reagent are transferred to the assay plate and incubate for 1 hour at room temperature in the dark. Luminescence counts are read on a BMG Fluostar Optima reader according to manufacturer's instructions.
For each compound concentration calculate of the percentage of activity compared to DMSO control value as average ±STDEV. (each concentration is measured in duplicate)
IC50 values and curves are generated with XLfit software (IDBS) using Dose-Response One Site model 203. When compounds were measured multiple times, mean values are given.

T4 sequence (P35408 whole entry): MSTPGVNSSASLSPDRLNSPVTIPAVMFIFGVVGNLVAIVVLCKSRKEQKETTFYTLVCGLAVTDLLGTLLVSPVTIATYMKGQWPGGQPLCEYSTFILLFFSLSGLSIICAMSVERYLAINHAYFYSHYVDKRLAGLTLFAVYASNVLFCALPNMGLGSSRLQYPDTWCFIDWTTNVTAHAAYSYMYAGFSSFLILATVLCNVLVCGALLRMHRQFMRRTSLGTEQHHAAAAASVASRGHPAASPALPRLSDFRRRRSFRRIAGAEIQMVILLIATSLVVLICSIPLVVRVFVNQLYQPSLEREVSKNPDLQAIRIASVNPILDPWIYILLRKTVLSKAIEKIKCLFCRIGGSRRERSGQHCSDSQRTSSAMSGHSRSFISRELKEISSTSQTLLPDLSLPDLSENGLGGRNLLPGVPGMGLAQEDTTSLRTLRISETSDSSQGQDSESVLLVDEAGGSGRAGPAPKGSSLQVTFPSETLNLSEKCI
T2 sequence (P35408 whole entry): as above
T1 sequence (P43116 whole entry): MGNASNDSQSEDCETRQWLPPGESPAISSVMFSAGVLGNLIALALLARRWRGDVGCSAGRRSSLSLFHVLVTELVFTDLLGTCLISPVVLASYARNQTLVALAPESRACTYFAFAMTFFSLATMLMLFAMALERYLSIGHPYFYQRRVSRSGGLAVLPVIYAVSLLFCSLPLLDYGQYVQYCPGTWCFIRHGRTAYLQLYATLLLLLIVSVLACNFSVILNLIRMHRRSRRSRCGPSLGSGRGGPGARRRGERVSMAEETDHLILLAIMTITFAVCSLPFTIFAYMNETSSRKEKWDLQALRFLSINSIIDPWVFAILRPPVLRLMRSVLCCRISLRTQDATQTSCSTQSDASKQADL
T3 sequence (P43116 whole entry): as above

Turning to `CCOc1cc(-c2cc(NCCc3c(Cl)ccc4cccnc34)ncn2)sc1C(=O)O` [Example 15, 5-{6-[2-(7-Chloro-quinolin-8-yl)-ethylamino]-pyrimidin-4-yl}-3-ethoxy-thiophene-2-carboxylic acid], the IC50 at PTGER2 (EP2) was 27 nM; on EP4, 171 nM; on EP2 it was 25 nM; at PTGER4 (EP4), 192 nM.
The like results for `CCOc1cc(-c2cc(NCCc3ccc(C)c4ccccc34)ncn2)ccc1C(=O)O` [Example 16, 2-Ethoxy-4-{6-[2-(4-methyl-naphthalen-1-yl)-ethylamino]-pyrimidin-4-yl}-benzoic acid] were, in that order, 143 nM, 268 nM, 176 nM and 290 nM.
The corresponding values for `CCOc1cc(-c2cc(NCCc3ccc(C)c4ccccc34)ncn2)sc1C(=O)O` [Example 18, 3-Ethoxy-5-{6-[2-(4-methyl-naphthalen-1-yl)-ethylamino]-pyrimidin-4-yl}-thiophene-2-carboxylic acid] are 19 nM, 7 nM, 21 nM and 9 nM.
The like results for `CCOc1cc(-c2cc(NCCc3ccc(F)c4ccccc34)ncn2)sc1C(=O)O` [Example 21, 3-Ethoxy-5-{6-[2-(4-fluoro-naphthalen-1-yl)-ethylamino]-pyrimidin-4-yl}-thiophene-2-carboxylic acid] were, in that order, 32 nM, 62 nM, 16 nM and 77 nM.
Regarding `CCOc1cc(-c2cc(NCCc3cccc4cccnc34)ncn2)sc1C(=O)O` [Example 23, 3-Ethoxy-5-[6-(2-quinolin-8-yl-ethylamino)-pyrimidin-4-yl}-thiophene-2-carboxylic acid], the IC50 worked out at 303 nM at PTGER2 (EP2), 239 nM against EP4, 248 nM on EP2 and 293 nM at PTGER4 (EP4).
As to `CCOc1cc(-c2cc(NCCc3cccc4ccn(C)c34)ncn2)sc1C(=O)O` [Example 24, 3-Ethoxy-5-{6-[2-(1-methyl-1H-indol-7-yl)-ethylamino]-pyrimidin-4-yl}-thiophene-2-carboxylic acid], the concentration for half-maximal inhibition (IC50) on PTGER2 (EP2) was found to be 17 nM; at EP4, 96 nM; against EP2, 15 nM; on PTGER4 (EP4), 203 nM.
Turning to `CCOc1cc(-c2cc(NCCc3cccc4c3ccn4C)ncn2)sc1C(=O)O` [Example 25, 3-Ethoxy-5-{6-[2-(1-methyl-1H-indol-4-yl)-ethylamino]-pyrimidin-4-yl}-thiophene-2-carboxylic acid], the IC50 was 15 nM at PTGER2 (EP2), 48 nM against EP4, 15 nM on EP2 and 145 nM at PTGER4 (EP4).
For the compound `CCOc1ccc2ccccc2c1CCNc1cc(-c2ccc(C(=O)O)c(OC3CCC3)c2)ncn1` [Example 26, 2-Cyclobutoxy-4-{6-[2-(2-ethoxy-naphthalen-1-yl)-ethylamino]-pyrimidin-4-yl}-benzoic acid], the IC50 on PTGER2 (EP2) was 10 nM; at EP4 it was 566 nM; on EP2, 11 nM; at PTGER4 (EP4) it was 392 nM.
With `CCOc1cc(-c2cc(NCCc3c(OCC)ccc4ccccc34)ncn2)sc1C(=O)O` [Example 27, 3-Ethoxy-5-{6-[2-(2-ethoxy-naphthalen-1-yl)-ethylamino]-pyrimidin-4-yl}-thiophene-2-carboxylic acid], the concentration for half-maximal inhibition (IC50) at PTGER2 (EP2) stood at 3 nM; against EP4, 33 nM; at EP2, 2 nM; on PTGER4 (EP4) it was 53 nM.
The like results for `CCOc1cc(-c2cc(NCCc3cccc4c(C)c(C)n(C)c34)ncn2)sc1C(=O)O` [Example 29, 3-Ethoxy-5-{6-[2-(1,2,3-trimethyl-1H-indol-7-yl)-ethylamino]-pyrimidin-4-yl}-thiophene-2-carboxylic acid] were, in that order, 241 nM, 148 nM, 136 nM and 164 nM.
The corresponding values for `CCOc1cc(-c2cc(NCCc3c(OC(C)C)ccc4ccccc34)ncn2)sc1C(=O)O` [Example 30, 3-Ethoxy-5-{6-[2-(2-isopropoxy-naphthalen-1-yl)-ethylamino]-pyrimidin-4-yl}-thiophene-2-carboxylic acid] are 115 nM, 61 nM, 23 nM and 83 nM.
The corresponding values for `CCOc1cc(-c2cc(NCCc3cccc4nc(C)sc34)ncn2)sc1C(=O)O` [Example 31, 3-Ethoxy-5-{6-[2-(2-methyl-benzothiazol-7-yl)-ethylamino]-pyrimidin-4-yl}-thiophene-2-carboxylic acid] are 201 nM, 567 nM, 190 nM and 1410 nM.
With `CCOc1cc(-c2cc(NCCc3c(OC(F)F)ccc4ccccc34)ncn2)sc1C(=O)O` [Example 32, 5-{6-[2-(2-Difluoromethoxy-naphthalen-1-yl)-ethylamino]-pyrimidin-4-yl}-3-ethoxy-thiophene-2-carboxylic acid], the IC50 on PTGER2 (EP2) was found to be 10 nM; against EP4, 72 nM; against EP2, 10 nM; at PTGER4 (EP4), 19 nM.
For `CCOc1cc(-c2cc(NCCc3c(OC)ccc4cccnc34)ncn2)sc1C(=O)O` [Example 33, 3-Ethoxy-5-{6-[2-(7-methoxy-quinolin-8-yl)-ethylamino]-pyrimidin-4-yl}-thiophene-2-carboxylic acid], the IC50 was 56 nM on PTGER2 (EP2), 223 nM against EP4, 78 nM at EP2 and 252 nM at PTGER4 (EP4).
The corresponding values for `CCOc1cc(-c2cc(NCCc3c(OC)ccc4c3CCO4)ncn2)sc1C(=O)O` [Example 34, 3-Ethoxy-5-{6-[2-(5-methoxy-2,3-dihydro-benzofuran-4-yl)-ethylamino]-pyrimidin-4-yl}-thiophene-2-carboxylic acid] are 39 nM, 152 nM, 64 nM and 114 nM.
The like results for `CCOc1cc(-c2cc(NCCc3cccc4ccoc34)ncn2)sc1C(=O)O` [Example 35, 5-[6-(2-Benzofuran-7-yl-ethylamino)-pyrimidin-4-yl]-3-ethoxy-thiophene-2-carboxylic acid] were, in that order, 115 nM, 92 nM, 76 nM and 113 nM.
As for `CCOc1cc(-c2cc(NCCc3cccc4[nH]ccc34)ncn2)sc1C(=O)O` [Example 39, 3-Ethoxy-5-{6-[2-(1H-indol-4-yl)-ethylamino]-pyrimidin-4-yl}-thiophene-2-carboxylic acid], the IC50 at PTGER2 (EP2) was found to be 81 nM; on EP4 it was 101 nM; against EP2, 50 nM; on PTGER4 (EP4) it was 386 nM.
